In a melting point compilation (Tetko et al.) one finds melting point data, which are given here for 123 molecules.

As for `ClCc1coc(-c2ccc(Br)cc2)n1`, the melting point (commonly the temperature, or range, at which the solid turns liquid) was in the range of 112 to 114 °C. With `CC(C)c1ccc(NCC(=O)N2CCCC2)cc1` the figure was 127 to 129 °C; with `CCOC(=O)C(=O)CC(=O)c1ccc2c(c1)OCO2`, 61 to 63 °C; with `CC(=O)Nc1c(Cl)cc(Br)c2ccccc12`, 227 to 229 °C. With `CS(=O)(=O)c1ccccc1-n1cc(C(=O)O)cn1` the figure was 225 to 227 °C; with `CC(C)CC(CNC(=O)OC(C)(C)C)C(=O)O` (stereo not drawn), 76 to 78 °C. As for `Cc1cc(C(=O)CCl)c(C)n1-c1ccc(S(N)(=O)=O)cc1`, the figure is 241 to 243 °C.

Consider `CC(C)S(=O)(=O)C(C)C(=O)O` (stereo not drawn), for which the melting point is 96 to 98 °C. As for `COC(=O)/C=C/c1cc(OC)c(OC)c(S(=O)(=O)Cl)c1`, the figure is 160 to 162 °C. With `O=C(CCCl)Nc1cc([N+](=O)[O-])ccc1F` the figure was 84 to 86 °C; with `COc1cc(C2(C(=O)O)CC2)ccc1C`, 127 to 129 °C. With `CNC(=O)NN` the figure was 103 to 105 °C. The molecule `O=C(CO)N1CCc2ccccc21` showed a melting point of 147 to 149 °C. With `CC1COc2ccccc2C1O` (stereo not drawn) the figure was 95 to 97 °C; with `Sc1nnc(-c2ccccc2)n1Cc1ccc2c(c1)OCO2`, 118 to 120 °C. With `Cc1onc(-c2cccc(Br)c2)c1C(=O)O` the figure was 169 to 171 °C; with `Cc1sc2nc(CCl)[nH]c(=O)c2c1C`, 190 to 192 °C. With `O=C(O)C1(c2cccc(C(F)(F)F)c2)CCOCC1` the figure was 147 to 149 °C; with `COC(=O)c1cncc(C(=O)O)c1`, 225 to 227 °C.

`Nc1n[nH]c(=O)[nH]c1=O` had a melting point of 334 to 336 °C.

With `COc1ccccc1Nc1nnc(S)s1`, the melting point lay within 182 to 184 °C. With `CCCCCCCCCCCC(=O)c1ccc(O)cc1` the figure was 71 to 73 °C.

Molecule `Cn1cc(C(N)=S)cn1` displayed a melting point of 189 to 191 °C. As for `Cc1oc(C(=O)O)cc1S(=O)(=O)N(C)C`, the figure is 151 to 153 °C; as for `CCOC(=O)c1c(N)sc(-c2ccccc2)c1C`, 94 to 96 °C.

In turn, `CSCc1cccc(C(=O)O)c1` had a melting point of 78 to 80 °C.

Molecule `O=C(O)C(Cc1ccccc1)NC(=O)C(c1ccccc1)c1ccccc1` (stereo not drawn) registered a melting point of 149 to 151 °C. As for `CC(C)c1ccc(C=O)cc1[N+](=O)[O-]`, the figure is 50 to 52 °C; as for `COc1cc(C=O)ccc1S`, 43 to 45 °C. With `O=C(O)c1ccc(-c2ccc(-c3ccccc3)cc2)s1` the figure was 272 to 274 °C; with `CNC(=O)Cc1ccc(N)cc1`, 84 to 86 °C; with `CCN(CC)S(=O)(=O)c1cc(C(=O)O)ccc1OC`, 182 to 184 °C. With `CC1CN(Cc2csc(N)n2)CC(C)O1` (stereo not drawn) the figure was 132 to 134 °C. `O=C(O)CCn1cnc2cc(F)c(F)cc21` returned a melting point of 157 to 159 °C. As for `Cc1occc1-c1nnc(S)n1Cc1ccccc1`, the figure is 134 to 136 °C; as for `Nc1ccc(N2CCOCC2)cn1`, 143 to 145 °C. As for `OCc1cnn(Cc2ccc(Br)cc2)c1`, the figure is 72 to 74 °C; as for `Cc1[nH]c(=O)[nH]c(=O)c1C#N`, 351 to 353 °C. As for `Cc1cccc2c(=O)[nH]cnc12`, the figure is 255 to 257 °C; as for `COc1ccc(NC(=O)OC(C)(C)C)c(N)c1`, 116 to 118 °C; as for `CC(C)(C)OC(=O)N1CCN(CC(=O)O)C(=O)C1`, 149 to 151 °C. `Cc1nc(=NCC(=O)O)c2cc(-c3ccccc3)sc2[nH]1` returned a melting point of 257 to 259 °C. Consider `Cc1cccc(COc2ccccc2C(=O)O)c1`, for which the melting point lay in the range of 155 to 157 °C.

As to `CC(Cl)C(=O)NC(C)c1ccc2c(c1)CCCC2` (stereo not drawn), the melting point was 106 to 108 °C. With `O=C(CCl)c1ccc2c(c1)-c1cc(C(=O)CCl)ccc1C2` the figure was 200 to 202 °C. As for `O=[N+]([O-])c1cccc(-c2nccs2)c1`, the figure is 238 to 240 °C; as for `O=C(CCl)c1ccc(Br)cc1`, 119 to 121 °C; as for `O=Cc1ccc(-n2cncn2)c(F)c1`, 127 to 129 °C. Turning to `O=C(O)c1cccc(N2CCOC2=O)c1`, the melting point was in the range of 214 to 216 °C. With `CC(C)CC1(C)NC(=O)NC1=O` (stereo not drawn) the figure was 145 to 147 °C; with `C#CCNC(=O)Nc1cccc([N+](=O)[O-])c1`, 173 to 175 °C. With `Brc1cnc2nccn2c1` the figure was 201 to 203 °C; with `Nc1cccc(N2CCOC2=O)c1`, 152 to 154 °C. With `O=C(O)c1c(Cl)ccc(S(=O)(=O)Cl)c1Cl` the figure was 168 to 170 °C; with `Cc1ccc(Br)c(C(=O)O)c1`, 139 to 141 °C. Molecule `Cc1csc(NC2CC2)n1` registered a melting point of 64 to 66 °C.

The molecule `O=Cc1cc[nH]n1` displayed a melting point of 139 to 141 °C. With `Cc1ccc(I)cc1C(=O)O` the figure was 166 to 168 °C; with `CC(O)CN1C(=O)C=CC1=O` (stereo not drawn), 74 to 76 °C. With `N#CCCn1cc(C=O)c(-c2ccccc2)n1` the figure was 74 to 76 °C; with `CC(C)c1noc(-c2ccnc(Cl)c2)n1`, 35 to 37 °C; with `Oc1cc(C(F)(F)F)nc(-c2cccnc2)n1`, 277 to 279 °C. With `OCc1ncc(-c2cccc(Cl)c2)o1` the figure was 101 to 103 °C; with `CC(C)CNc1c(N)n(Cc2ccccc2)c(=O)[nH]c1=O`, 211 to 213 °C; with `COCCN(C(=O)CCl)c1c(N)n(CC(C)C)c(=O)[nH]c1=O`, 204 to 206 °C. Molecule `Cc1nn(Cc2cccc(Br)c2)c(C)c1C(=O)O` had a melting point of 174 to 176 °C.

On to `Cn1c(CC(=O)NN)nc2ccccc21`, for which the melting point was 206 to 208 °C. With `O=C(O)c1ccc(OCc2cscn2)cc1` the figure was 191 to 193 °C; with `O=S(=O)(Cl)c1ccc2c(c1)S(=O)(=O)CC2`, 128 to 130 °C; with `O=C1C(Br)CCN1c1ccc(Cl)c(F)c1` (stereo not drawn), 94 to 96 °C. As for `Oc1ncncc1Br`, the figure is 193 to 195 °C; as for `O=C(O)c1ccc(SC2CCOC2=O)cc1` (stereo not drawn), 169 to 171 °C. Regarding `O=C(O)C12CC3CC(CC(F)(C3)C1)C2`, the melting point was 109 to 111 °C. With `c1ccc(CCCc2nnn[nH]2)cc1` the figure was 90 to 92 °C. With `O=C(O)Cn1nc(-c2ccccc2)oc1=O` the figure was 196 to 198 °C. In turn, `CCOC(=O)c1[nH]cnc1N` came in with a melting point of 129 to 131 °C. The molecule `Cc1ccccc1CC(N)=NO` gave a melting point of 121 to 123 °C. As for `COc1cc(F)c(C(C)=O)cc1OC`, the figure is 92 to 94 °C. With `Cc1ccc(C(=O)O)c(C)n1` the figure was 168 to 170 °C; with `CC(C)(C)n1ccnc1S`, 192 to 194 °C. As for `CC(C)(N)c1noc(C(N)=O)n1`, the figure is 168 to 170 °C. `C/C(=N/O)c1ccc2c(c1)CCO2`: the melting point fell in the range of 122 to 124 °C. As for `COc1ccc(Br)cc1NC(=O)C1CCC1`, the figure is 84 to 86 °C. `CC(=O)c1cccc(NS(C)(=O)=O)c1` had a melting point of 91 to 93 °C. With `NNC(=O)c1ccc2c(=O)n3c(nc2c1)CCC3` the figure was 268 to 270 °C; with `O=C1COc2ccc(Cl)cc21`, 115 to 117 °C; with `O=C(O)CC=Cc1cccc(F)c1`, 64 to 66 °C. With `CCOC(=O)Nc1cccc(C(=O)O)c1` the figure was 196 to 198 °C. As for `Cc1ccc(NC(=O)NCC2CCCNC2)cc1` (stereo not drawn), the figure is 161 to 163 °C; as for `COCc1nc(C)c(C(=O)O)s1`, 159 to 161 °C. Turning to `Cc1nc2cc(C(F)(F)F)ccc2s1`, the melting point lay in the range of 63 to 65 °C. For the molecule `NC(=S)NCc1ccc(OC(F)(F)F)cc1`, the melting point lay in the range of 120 to 122 °C. As for `Nc1ccc(S(=O)(=O)Nc2ccccc2Cl)cc1`, the figure is 159 to 161 °C; as for `OCCNc1ccc(Cl)nn1`, 133 to 135 °C. As for `CNc1ncc(I)cn1`, the figure is 134 to 136 °C; as for `CNS(=O)(=O)c1ccc(Br)c(C)c1`, 77 to 79 °C; as for `CC1=NS(=O)(=O)NC(C)=C1CCC(=O)O`, 162 to 164 °C.

In the case of `Cc1nc(NC(=O)NN)no1`, the melting point lay in the range of 288 to 290 °C. With `CCC(=O)c1ccc2c(c1)CC(=O)N2C` the figure was 205 to 207 °C; with `CC(=O)c1cnn(Cc2ccccc2)c1`, 61 to 63 °C; with `COC(=O)c1ccc(CBr)cc1F`, 74 to 76 °C.

`Nc1ccc(-c2cc[nH]c2)cc1` yielded a melting point of 99 to 101 °C. With `NNC(=O)Cc1ccccn1` the figure was 111 to 113 °C. As for `NCC(Cc1ccc(F)cc1)C(N)=O` (stereo not drawn), the figure is 119 to 121 °C. With `Cc1ccc(OCC2CCCO2)c(S(=O)(=O)Cl)c1` (stereo not drawn) the figure was 76 to 78 °C. As for `O=C(O)C1CCCN(C(=O)Nc2ccccc2)C1` (stereo not drawn), the melting point is 163 to 165 °C. With `Cc1cncc(C=CC(=O)O)c1` the figure was 209 to 211 °C; with `O=C(O)c1cccc(S(=O)(=O)NCc2cccnc2)c1`, 231 to 233 °C; with `COc1nc(C)ccc1C#N`, 84 to 86 °C.

For the molecule `COc1ccc(C)cc1-n1nnnc1S`, the melting point was 164 to 166 °C.

As for `O=C(O)c1ccccc1OCc1ccc(Br)cc1`, the melting point lay in the range of 119 to 121 °C.

`CON(C)S(=O)(=O)c1cc(N)ccc1Cl` gave a melting point of 88 to 90 °C.

With `Cn1cnnc1CO`, the melting point was 49 to 51 °C. `CSc1ccc(C(=O)CCl)cc1` yielded a melting point of 72 to 74 °C.

`CC(C(=O)O)N1C(=O)C2CC=CCC2C1=O` (stereo not drawn) gave a melting point of 123 to 125 °C. With `CC(Cl)C(=O)NCCc1ccc2c(c1)OCCO2` (stereo not drawn), the melting point lay within 106 to 108 °C.

On to `O=C1Nc2c(Br)cc(Cl)cc2C1=O`, for which the melting point was 245 to 247 °C. With `O=C(Nc1cc(F)ccc1C(=O)O)c1cccc(Br)c1` the figure was 217 to 219 °C; with `Cc1ccc(NS(=O)(=O)c2cccc(C(=O)O)c2)cc1`, 203 to 205 °C; with `CC1CNC(=Nc2ccc(C(C)C)cc2)S1` (stereo not drawn), 109 to 111 °C.

Molecule `Nc1ccc(Br)cc1-c1nc(C2CC2)no1` returned a melting point of 123 to 125 °C. With `COC(=O)c1ncccc1F` the figure was 81 to 83 °C; with `C=CC(CC(=O)O)c1ccccc1` (stereo not drawn), 39 to 41 °C.
